Experimental data from ChEMBL document CHEMBL1208717, “Antimalarial 3-arylamino-6-benzylamino-1,2,4,5-tetrazines” (Bioorg Med Chem Lett, 2010).
Values joined by “and” are separate entries in the source; they are usually repeats but may differ in a detail not shown here. Equal values may be shown once.

Experiments:
Plasmodium falciparum [1] = experiment: Antimalarial activity against erythrocytic stage of Plasmodium falciparum 3D7; format: functional, organism-based
Leishmania infantum = experiment: Antileishmanial activity against amastigote stage of Leishmania infantum; format: functional, organism-based
Trypanosoma cruzi = experiment: Antitrypanosomal activity against amastigote stage of Trypanosoma cruzi Tulahuen C2C4; format: functional, organism-based; settings: Tulahaen C2C4
[2] = system: Trypanosoma brucei rhodesiense; experiment: Antitrypanosomal activity against bloodstream form of Trypanosoma brucei rhodesiense STIB 900; format: functional, organism-based
L6 = experiment: Cytotoxicity against rat L6 cells; format: cell-based
Plasmodium falciparum [3] = experiment: Antimalarial activity against erythrocytic stage of chloroquine-resistant Plasmodium falciparum Dd2; format: functional, organism-based
[4] = Cytotoxicity against human HEK cells at 29 uM; format: cell-based; settings: hek293, 29 µM
Plasmodium falciparum [5] = experiment: Antimalarial activity against erythrocytic stage of Plasmodium falciparum 3D7 at 115 uM; format: functional, organism-based
[6] = Cytotoxicity against human HEK cells at 115 uM; format: cell-based; settings: hek293, 115 µM
[7] = Cytotoxicity against human HEK cells; format: cell-based; settings: HEK293
Plasmodium falciparum [8] = experiment: Antimalarial activity against erythrocytic stage of Plasmodium falciparum 3D7 at 38 uM; format: functional, organism-based
[9] = Cytotoxicity against human HEK cells at 38 uM; format: cell-based; settings: hek293, 38 µM
Plasmodium falciparum [10] = experiment: Antimalarial activity against erythrocytic stage of chloroquine-resistant Plasmodium falciparum Dd2 at 115 uM; format: functional
[11] = Plasmodium falciparum, Dd2, read-out: EC50

Question: With `Clc1ccc(Nc2nnc(NCc3ccccc3)nn2)cc1` as the compound, how does the EC50 (Plasmodium falciparum [1]) read?
Answer: The EC50 was 440 nM and 1100 nM.

Question: What about the EC50 (Leishmania infantum) of the same compound?
Answer: Its EC50 is 16 µM.

Question: What about the EC50 (Trypanosoma cruzi) of the same compound?
Answer: Its EC50 is 15 µM.

Question: What about the EC50 [2] of the same compound?
Answer: The EC50 was > 32 µM.

Question: And the IC50 (L6)?
Answer: The IC50 was > 32 µM.

Question: And the EC50 (Plasmodium falciparum [3]; [11])?
Answer: The EC50 was 1.1 µM.

Question: And the Activity [4]?
Answer: Its Activity is 58%.

Question: Which EC50 (Plasmodium falciparum [5]) does the source give for `CCCCNc1nnc(NCc2ccccc2)nn1` here?
Answer: Its EC50 is “Not Active”.

Question: What about the Activity [6] of the same compound?
Answer: The Activity was “Non-toxic”.

Question: Which EC50 (Plasmodium falciparum [1]; Plasmodium falciparum, 3D7) does the source give for `CN(C)CCN(c1ccc(Cl)cc1)c1nnc(NCc2ccccc2)nn1` here?
Answer: The EC50 was 13000 nM.

Question: What about the EC50 (Plasmodium falciparum [3]; [11]) of the same compound?
Answer: Its EC50 is 20 µM.

Question: And the IC50 [7]?
Answer: Its IC50 is 38 µM.

Question: Which EC50 (Plasmodium falciparum [5]) does the source give for `CN(C)CCN(Cc1ccccc1)c1nnc(N(CCN(C)C)c2ccc(Cl)cc2)nn1` here?
Answer: The EC50 was “Not Active”.

Question: And the Activity [6]?
Answer: Its Activity is “Non-toxic”.

Question: Which results are given for `CN(C)CCOc1cccc(CNc2nnc(Nc3ccc(Cl)cc3)nn2)c1`?
Answer: EC50 (Plasmodium falciparum [1]; Plasmodium falciparum, 3D7): 5000 nM; EC50 (Plasmodium falciparum [3]): 6 µM; IC50 [7]: 21 µM

Question: What does the source list for `CC(Nc1nnc(Nc2ccc(Cl)cc2)nn1)c1ccccc1` (configuration not stated)?
Answer: EC50 (Plasmodium falciparum [8]): Not Active; Activity [9]: Non-toxic

Question: With `CN(c1ccc(Cl)cc1)c1nnc(NCc2ccccc2)nn1` as the compound, how does the EC50 (Plasmodium falciparum [1]; Plasmodium falciparum, 3D7) read?
Answer: The EC50 was 2400 nM.

Question: And the EC50 (Plasmodium falciparum [3]; [11])?
Answer: The EC50 was 3.5 µM.

Question: What about the IC50 [7] of the same compound?
Answer: The IC50 was 12 µM.

Question: For `c1ccc(CNc2nnc(Nc3ccccc3)nn2)cc1`, which EC50 (Plasmodium falciparum [5]) is on record?
Answer: The EC50 was “Not Active”.

Question: What about the Activity [6] of the same compound?
Answer: Its Activity is “Non-toxic”.

Question: With `CN(C)CCOc1cccc(Nc2nnc(NCc3ccccc3)nn2)c1` as the compound, how does the EC50 (Plasmodium falciparum [1]; Plasmodium falciparum, 3D7) read?
Answer: Its EC50 is 15000 nM.

Question: And the EC50 (Plasmodium falciparum [3]; [11])?
Answer: Its EC50 is 13 µM.

Question: What about the Activity [9] of the same compound?
Answer: Its Activity is 52%.

Question: For `COc1nncc(-c2cnnc(SC)n2)n1`, which EC50 (Plasmodium falciparum [1]; Plasmodium falciparum, 3D7) is on record?
Answer: The EC50 was 180 nM.

Question: And the EC50 (Leishmania infantum)?
Answer: Its EC50 is 8.6 µM.

Question: And the EC50 (Trypanosoma cruzi)?
Answer: The EC50 was 16 µM.

Question: And the EC50 [2]?
Answer: The EC50 was 5.7 µM.

Question: What about the IC50 (L6) of the same compound?
Answer: Its IC50 is 33 µM.

Question: What does the source list for `CNc1nnc(NCc2ccccc2)nn1`?
Answer: EC50 (Plasmodium falciparum [5]): Not Active; Activity [6]: Non-toxic

Question: Which Activity (Plasmodium falciparum [5]) does the source give for `Clc1ccc(Nc2nnc(NCCc3ccccc3)nn2)cc1` here?
Answer: The Activity was 85%.

Question: And the Activity (Plasmodium falciparum [10])?
Answer: Its Activity is 88%.

Question: What about the Activity [6] of the same compound?
Answer: The Activity was “Non-toxic”.
